Laboratory results reported in the NIST ThermoML archive (doi:10.1021/acs.jced.5b00105).
Numbers after ± are expanded uncertainties.

Experiment: xn = mol fraction of the nth substance listed
Conditions: 100 kPa, Liquid; for mass density: Vibrating tube method; for viscosity: Concentric cylinders viscometry

CCCCC1CCCCC1 [butylcyclohexane] + CC(C)CC(C)(C)C
Conditions | mass density [kg/m3] | viscosity [mPa·s]
308.15 K, x1 = 0.0999 | 691.83 ± 0.19 | –
308.15 K, x1 = 0.2002 | 703.8 ± 0.18 | –
308.15 K, x1 = 0.3001 | 715.4 ± 0.18 | –
308.15 K, x1 = 0.3996 | 726.61 ± 0.18 | –
308.15 K, x1 = 0.5005 | 737.66 ± 0.17 | –
308.15 K, x1 = 0.6003 | 748.29 ± 0.17 | –
308.15 K, x1 = 0.6994 | 758.58 ± 0.16 | –
308.15 K, x1 = 0.8 | 768.72 ± 0.16 | –
308.15 K, x1 = 0.9001 | 778.55 ± 0.16 | –
308.15 K, x1 = 1 | 788.12 ± 0.15 | –
313.15 K, x1 = 0.0999 | 687.7 ± 0.19 | 0.464 ± 0.074
313.15 K, x1 = 0.2002 | 699.73 ± 0.19 | 0.502 ± 0.08
313.15 K, x1 = 0.3001 | 711.37 ± 0.18 | 0.544 ± 0.087
313.15 K, x1 = 0.3996 | 722.64 ± 0.18 | 0.588 ± 0.094
313.15 K, x1 = 0.5005 | 733.72 ± 0.17 | 0.638 ± 0.1
313.15 K, x1 = 0.6003 | 744.39 ± 0.17 | 0.691 ± 0.11
313.15 K, x1 = 0.6994 | 754.72 ± 0.17 | 0.749 ± 0.12
313.15 K, x1 = 0.8 | 764.89 ± 0.16 | 0.814 ± 0.13
313.15 K, x1 = 0.9001 | 774.76 ± 0.16 | 0.883 ± 0.14
313.15 K, x1 = 1 | 784.35 ± 0.15 | 0.961 ± 0.15
318.15 K, x1 = 0.0999 | 683.64 ± 0.19 | 0.446 ± 0.072
318.15 K, x1 = 0.2002 | 695.56 ± 0.19 | 0.482 ± 0.077
318.15 K, x1 = 0.3001 | 707.24 ± 0.18 | 0.519 ± 0.083
318.15 K, x1 = 0.3996 | 718.6 ± 0.18 | 0.561 ± 0.09
318.15 K, x1 = 0.5005 | 729.73 ± 0.17 | 0.607 ± 0.097
318.15 K, x1 = 0.6003 | 740.43 ± 0.17 | 0.654 ± 0.11
318.15 K, x1 = 0.6994 | 750.82 ± 0.17 | 0.708 ± 0.11
318.15 K, x1 = 0.8 | 760.98 ± 0.16 | 0.765 ± 0.12
318.15 K, x1 = 0.9001 | 770.84 ± 0.16 | 0.829 ± 0.13
318.15 K, x1 = 1 | 780.49 ± 0.15 | 0.9 ± 0.14
323.15 K, x1 = 0.0999 | 679.45 ± 0.19 | 0.427 ± 0.068
323.15 K, x1 = 0.2002 | 691.42 ± 0.19 | 0.46 ± 0.074
323.15 K, x1 = 0.3001 | 703.16 ± 0.18 | 0.496 ± 0.08
323.15 K, x1 = 0.3996 | 714.56 ± 0.18 | 0.534 ± 0.086
323.15 K, x1 = 0.5005 | 725.73 ± 0.18 | 0.575 ± 0.092
323.15 K, x1 = 0.6003 | 736.49 ± 0.17 | 0.62 ± 0.099
323.15 K, x1 = 0.6994 | 746.95 ± 0.17 | 0.668 ± 0.11
323.15 K, x1 = 0.8 | 757.16 ± 0.16 | 0.721 ± 0.12
323.15 K, x1 = 0.9001 | 767.06 ± 0.16 | 0.779 ± 0.12
323.15 K, x1 = 1 | 776.7 ± 0.16 | 0.844 ± 0.14
333.15 K, x1 = 0.0999 | 670.99 ± 0.19 | 0.396 ± 0.064
333.15 K, x1 = 0.2002 | 683.12 ± 0.19 | 0.424 ± 0.068
333.15 K, x1 = 0.3001 | 694.98 ± 0.19 | 0.454 ± 0.073
333.15 K, x1 = 0.3996 | 706.46 ± 0.18 | 0.487 ± 0.078
333.15 K, x1 = 0.5005 | 717.7 ± 0.18 | 0.522 ± 0.084
333.15 K, x1 = 0.6003 | 728.53 ± 0.17 | 0.56 ± 0.09
333.15 K, x1 = 0.6994 | 739.06 ± 0.17 | 0.601 ± 0.096
333.15 K, x1 = 0.8 | 749.37 ± 0.17 | 0.646 ± 0.1
333.15 K, x1 = 0.9001 | 759.38 ± 0.16 | 0.695 ± 0.11
333.15 K, x1 = 1 | 769.09 ± 0.16 | 0.749 ± 0.12
343.15 K, x1 = 0.0999 | 662.4 ± 0.2 | 0.369 ± 0.059
343.15 K, x1 = 0.2002 | 674.66 ± 0.19 | 0.394 ± 0.063
343.15 K, x1 = 0.3001 | 686.64 ± 0.19 | 0.42 ± 0.067
343.15 K, x1 = 0.3996 | 698.25 ± 0.18 | 0.448 ± 0.072
343.15 K, x1 = 0.5005 | 709.63 ± 0.18 | 0.48 ± 0.077
343.15 K, x1 = 0.6003 | 720.57 ± 0.18 | 0.51 ± 0.082
343.15 K, x1 = 0.6994 | 731.21 ± 0.17 | 0.545 ± 0.087
343.15 K, x1 = 0.8 | 741.57 ± 0.17 | 0.584 ± 0.094
343.15 K, x1 = 0.9001 | 751.62 ± 0.16 | 0.626 ± 0.1
343.15 K, x1 = 1 | 761.43 ± 0.16 | 0.671 ± 0.11
